From the NIST ThermoML archive (doi:10.1016/j.jct.2017.08.028)

Assay: molar heat capacity at constant pressure
Conditions: 101.33 kPa, Crystal, Small (less than 1 g) adiabatic calorimetry

O[C@H]1[C@H](O)[C@@H](O)[C@H](O)[C@@H](O)[C@H]1O [cis-1,2,3,5-trans-4,6-cyclohexanehexol]
Conditions | molar heat capacity at constant pressure [J/K/mol]
5 K | 0.095
6 K | 0.1967
7 K | 0.3623
8 K | 0.6094
8.37 K | 0.774
8.4 K | 0.78
8.51 K | 0.803
8.64 K | 0.841
8.77 K | 0.885
8.91 K | 0.93
9 K | 0.9596
9.05 K | 0.977
9.2 K | 1.034
9.34 K | 1.096
9.5 K | 1.162
9.65 K | 1.224
9.81 K | 1.296
9.98 K | 1.381
10 K | 1.387
10.17 K | 1.467
10.39 K | 1.577
10.59 K | 1.677
10.81 K | 1.817
11.05 K | 1.945
11.28 K | 2.084
11.52 K | 2.218
11.76 K | 2.363
12 K | 2.535
12.25 K | 2.7
12.5 K | 2.861
12.75 K | 3.034
13.01 K | 3.189
13.27 K | 3.362
13.53 K | 3.524
13.81 K | 3.727
14.08 K | 3.897
14.35 K | 4.078
14.63 K | 4.226
14.91 K | 4.431
15 K | 4.502
15.19 K | 4.618
15.47 K | 4.81
15.75 K | 4.99
16.04 K | 5.208
16.32 K | 5.4
16.61 K | 5.588
16.9 K | 5.795
17.2 K | 5.99
17.49 K | 6.202
17.78 K | 6.394
18.08 K | 6.622
18.37 K | 6.852
18.67 K | 7.06
18.97 K | 7.278
19.27 K | 7.496
19.57 K | 7.721
19.87 K | 7.949
20 K | 8.03
20.46 K | 8.428
21.33 K | 9.104
22.21 K | 9.711
23.1 K | 10.41
24 K | 11.09
24.9 K | 11.77
25 K | 11.83
25.81 K | 12.44
26.73 K | 13.12
27.66 K | 13.84
28.59 K | 14.6
30 K | 15.78
30.38 K | 16.06
31.42 K | 16.86
32.38 K | 17.74
33.35 K | 18.4
34.31 K | 19.3
35 K | 19.73
35.28 K | 20.02
36.25 K | 20.7
37.23 K | 21.47
38.21 K | 22.22
39.19 K | 22.99
40 K | 23.57
40.18 K | 23.66
41.16 K | 24.37
42.15 K | 25.13
43.15 K | 25.81
44.14 K | 26.63
45 K | 27.22
45.14 K | 27.34
46.17 K | 28.07
47.17 K | 28.86
48.17 K | 29.58
49.18 K | 30.39
50 K | 30.99
50.18 K | 31.12
51.2 K | 31.92
53.79 K | 33.97
54.97 K | 34.9
55.99 K | 35.65
57.01 K | 36.49
58.03 K | 37.34
59.05 K | 38.14
60 K | 38.84
60.07 K | 38.87
61.1 K | 39.73
62.12 K | 40.52
63.15 K | 41.35
64.17 K | 42.18
65.2 K | 43.06
66.23 K | 43.91
67.26 K | 44.68
68.29 K | 45.54
69.32 K | 46.48
70 K | 46.97
70.38 K | 47.25
71.85 K | 48.53
73.87 K | 50.14
75.89 K | 51.78
77.91 K | 53.41
78.79 K | 54.18
79.15 K | 54.64
79.8 K | 55.07
80 K | 55.23
80.92 K | 56.01
81.14 K | 56.14
83.15 K | 57.79
85.15 K | 59.59
87.15 K | 61.09
89.15 K | 62.93
90 K | 63.55
91.14 K | 64.62
93.14 K | 66.21
95.13 K | 67.8
97.12 K | 69.47
99.11 K | 71.03
100 K | 71.84
101.58 K | 73.24
104.56 K | 75.65
107.54 K | 78.02
110 K | 80.06
110.53 K | 80.42
113.53 K | 82.88
116.54 K | 85.33
119.54 K | 87.73
120 K | 88.17
122.54 K | 90.16
125.55 K | 92.54
128.56 K | 94.96
130 K | 96.15
131.58 K | 97.38
134.6 K | 99.81
137.62 K | 102.1
140 K | 104
140.65 K | 104.5
143.68 K | 106.9
146.71 K | 109.2
149.74 K | 111.6
150 K | 111.7
152.78 K | 113.9
155.81 K | 116.2
158.85 K | 118.6
160 K | 119.4
161.89 K | 120.9
164.97 K | 123.2
168.01 K | 125.5
170 K | 126.9
171.06 K | 127.7
174.1 K | 130
177.15 K | 132.3
180 K | 134.3
180.2 K | 134.4
183.25 K | 136.7
186.3 K | 138.9
189.35 K | 141.2
190 K | 141.7
192.4 K | 143.5
195.46 K | 145.6
198.52 K | 147.8
200 K | 149.1
201.57 K | 150.1
204.63 K | 152.3
208.19 K | 155.1
210 K | 156.4
212.26 K | 158
216.41 K | 161.2
220 K | 163.7
220.48 K | 164
224.57 K | 167.1
228.65 K | 170.1
230 K | 171.1
232.72 K | 173.2
236.81 K | 176.2
240 K | 178.5
240.91 K | 179.3
245 K | 182.3
249.09 K | 185.2
250 K | 185.9
253.18 K | 188.2
257.27 K | 191.3
260 K | 193.4
261.36 K | 194.4
265.46 K | 197.6
269.55 K | 200.6
270 K | 200.9
273.15 K | 203.2
273.64 K | 203.7
277.73 K | 206.6
280 K | 208.4
281.9 K | 210
285.98 K | 212.8
290 K | 216
290.07 K | 215.9
294.15 K | 219
298.15 K | 222.1
298.22 K | 222
300 K | 223.5
303.01 K | 226
308.39 K | 230
310 K | 231.1
313.76 K | 234
319.12 K | 237.9
320 K | 238.7
324.46 K | 241.9
329.77 K | 246
330 K | 246.2
335.05 K | 250.1
340 K | 253.7
340.3 K | 253.9
